IC50 data for 44 compounds are collected here from patent US9096500B2, “Acyl sulfonamide compounds” (Pfizer Limited, priority 2010, dated 2015).

A value given as a limit tells only on which side of the number the result lay.

In this assay the target is T1, Nav1.7 (or SCN9A) channel (Homo sapiens, UniProt Q15858).
T1 construct: expressed in transfected cells
Briefly: Nav1.7 (hSCN9A) electrophysiology assay, PatchXpress platform. The following applies: estimated IC50 from single point electrophysiology data, HEK cells stably expressing hSCN9A, held at V1/2 of inactivation, read-out: Nav1.7 EIC50. Type of assay: cell-based. In a few lines:
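HEK cells stably expressing hSCN9A were recorded by whole-cell voltage clamp, including on PatchXpress, at 22–24°C with extracellular solution at pH 7.4. A 20 msec step to 0 mV followed an 8 s conditioning prepulse to the empirically determined inactivation V1/2. Inhibition was taken from current amplitude before vs after compound.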

T1 sequence (Q15858 whole entry): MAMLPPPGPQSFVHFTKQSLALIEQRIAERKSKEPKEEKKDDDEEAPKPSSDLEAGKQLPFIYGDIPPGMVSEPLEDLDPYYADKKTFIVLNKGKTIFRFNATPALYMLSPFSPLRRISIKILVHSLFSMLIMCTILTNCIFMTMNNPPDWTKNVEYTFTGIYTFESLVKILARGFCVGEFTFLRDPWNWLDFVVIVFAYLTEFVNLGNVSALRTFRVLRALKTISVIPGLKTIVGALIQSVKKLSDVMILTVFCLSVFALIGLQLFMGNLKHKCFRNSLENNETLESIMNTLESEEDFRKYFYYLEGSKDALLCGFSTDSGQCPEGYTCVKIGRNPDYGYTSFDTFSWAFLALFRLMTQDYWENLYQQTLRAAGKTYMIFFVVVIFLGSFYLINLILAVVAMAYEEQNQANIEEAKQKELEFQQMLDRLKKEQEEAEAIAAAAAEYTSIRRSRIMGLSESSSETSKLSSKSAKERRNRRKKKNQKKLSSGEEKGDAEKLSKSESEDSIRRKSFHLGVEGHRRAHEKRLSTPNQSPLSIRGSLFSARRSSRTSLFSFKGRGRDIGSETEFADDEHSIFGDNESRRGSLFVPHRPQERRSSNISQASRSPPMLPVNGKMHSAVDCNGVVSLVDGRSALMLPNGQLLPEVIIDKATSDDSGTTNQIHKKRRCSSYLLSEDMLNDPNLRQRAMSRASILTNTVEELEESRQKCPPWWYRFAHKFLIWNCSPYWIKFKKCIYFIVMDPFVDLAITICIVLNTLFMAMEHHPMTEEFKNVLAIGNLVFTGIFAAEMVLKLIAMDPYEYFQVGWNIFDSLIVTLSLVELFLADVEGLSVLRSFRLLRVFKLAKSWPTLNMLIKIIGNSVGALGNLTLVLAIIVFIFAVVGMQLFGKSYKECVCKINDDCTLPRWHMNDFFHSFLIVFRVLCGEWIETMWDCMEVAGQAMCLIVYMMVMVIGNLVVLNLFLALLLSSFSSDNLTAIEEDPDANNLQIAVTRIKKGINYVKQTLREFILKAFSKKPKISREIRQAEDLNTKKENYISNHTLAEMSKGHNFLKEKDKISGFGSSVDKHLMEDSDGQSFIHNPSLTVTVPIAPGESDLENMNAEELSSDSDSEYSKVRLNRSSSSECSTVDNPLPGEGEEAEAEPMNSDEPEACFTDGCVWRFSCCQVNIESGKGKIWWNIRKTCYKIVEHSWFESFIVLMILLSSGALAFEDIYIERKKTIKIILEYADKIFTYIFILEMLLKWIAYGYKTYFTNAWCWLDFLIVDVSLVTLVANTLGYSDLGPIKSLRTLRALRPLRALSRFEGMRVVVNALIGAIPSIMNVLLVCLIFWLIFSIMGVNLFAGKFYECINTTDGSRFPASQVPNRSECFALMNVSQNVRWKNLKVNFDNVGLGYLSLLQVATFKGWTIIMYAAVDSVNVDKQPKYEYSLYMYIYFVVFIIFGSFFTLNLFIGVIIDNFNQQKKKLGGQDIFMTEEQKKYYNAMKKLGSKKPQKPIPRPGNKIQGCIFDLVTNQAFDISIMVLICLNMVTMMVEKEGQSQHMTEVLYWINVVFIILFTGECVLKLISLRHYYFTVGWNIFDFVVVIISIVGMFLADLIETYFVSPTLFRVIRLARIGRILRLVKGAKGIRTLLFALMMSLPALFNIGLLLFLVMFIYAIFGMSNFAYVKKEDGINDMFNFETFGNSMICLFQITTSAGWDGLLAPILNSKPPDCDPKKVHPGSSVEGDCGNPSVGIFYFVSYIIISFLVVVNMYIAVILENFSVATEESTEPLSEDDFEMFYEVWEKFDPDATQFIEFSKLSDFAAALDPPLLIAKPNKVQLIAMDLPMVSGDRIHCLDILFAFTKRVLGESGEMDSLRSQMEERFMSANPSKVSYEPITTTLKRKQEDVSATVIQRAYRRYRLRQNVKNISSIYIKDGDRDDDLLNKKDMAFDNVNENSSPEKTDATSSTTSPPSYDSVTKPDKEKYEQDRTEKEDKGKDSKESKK

On to `CS(=O)(=O)NC(=O)c1cc(F)c(COc2ccc(F)cc2C#N)cc1F` [Example 153, 4-[(2-cyano-4-fluorophenoxy)methyl]-2,5-difluoro-N-(methylsulfonyl)benzamide], for which the IC50 was 12000 nM.

For `CS(=O)(=O)NC(=O)c1cc(F)c(COc2cccc(C#N)c2)cc1F` [Example 154, 4-[(3-cyanophenoxy)methyl]-2,5-difluoro-N-(methylsulfonyl)benzamide], the IC50 was 11000 nM.

Consider `COc1ccc(OCc2cc(F)c(C(=O)NS(C)(=O)=O)cc2F)c(F)c1F` [Example 155, 4-[(2,3-difluoro-4-methoxyphenoxy)methyl]-2,5-difluoro-N-(methylsulfonyl)benzamide], for which the IC50 was 3200 nM.

With `COc1ccc2cccc(OCc3cc(F)c(C(=O)NS(C)(=O)=O)cc3F)c2c1` [Example 156, 2,5-difluoro-4-{[(7-methoxy-1-naphthyl)oxy]methyl}-N-(methylsulfonyl)benzamide], the IC50 was 2300 nM.

On to `COc1ccc(OCc2cc(F)c(C(=O)NS(C)(=O)=O)cc2F)c(Cl)c1` [Example 157, 4-[(2-chloro-4-methoxyphenoxy)methyl]-2,5-difluoro-N-(methylsulfonyl)benzamide], for which the IC50 is 2100 nM.

Take `CS(=O)(=O)NC(=O)c1cc(F)c(COc2ccc(F)cc2)cc1F` [Example 158, 2,5-difluoro-4-[(4-fluorophenoxy)methyl]-N-(methylsulfonyl)benzamide]: the IC50 was 1500 nM.

Regarding `Cc1cc(OCc2cc(F)c(C(=O)NS(C)(=O)=O)cc2F)ccc1Cl` [Example 159, 4-[(4-chloro-3-methylphenoxy)methyl]-2,5-difluoro-N-(methylsulfonyl)benzamide], the IC50 is 130 nM.

On to `COc1ccc(OCc2cc(F)c(C(=O)NS(C)(=O)=O)cc2F)c2ccccc12` [Example 160, 2,5-difluoro-4-{[(4-methoxy-1-naphthyl)oxy]methyl}-N-(methylsulfonyl)benzamide], for which the IC50 was 760 nM.

Consider `Cc1cc(OCc2cc(F)c(C(=O)NS(C)(=O)=O)cc2F)cc(C)c1C#N` [Example 162, 4-[(4-cyano-3,5-dimethylphenoxy)methyl]-2,5-difluoro-N-(methylsulfonyl)benzamide], for which the IC50 is 730 nM.

For the compound `CS(=O)(=O)NC(=O)c1cc(F)c(COc2ccc(F)c(Cl)c2C#N)cc1F` [Example 163, 4-[(3-chloro-2-cyano-4-fluorophenoxy)methyl]-2,5-difluoro-N-(methylsulfonyl)benzamide], the IC50 was over 1000 nM.

Turning to `COc1ccc(OCc2cc(F)c(C(=O)NS(C)(=O)=O)cc2F)cc1` [Example 164, 2,5-difluoro-4-[(4-methoxyphenoxy)methyl]-N-(methylsulfonyl)benzamide], the IC50 was over 3000 nM.

For the compound `CS(=O)(=O)NC(=O)c1cc(F)c(COc2cccc3ccccc23)cc1F` [Example 165, 2,5-difluoro-N-(methylsulfonyl)-4-[(1-naphthyloxy)methyl]benzamide], the IC50 is 740 nM.

For `Cc1nc(-c2cccc(OCc3cc(F)c(C(=O)NS(C)(=O)=O)cc3F)c2)no1` [Example 166, 2,5-difluoro-4-{[3-(5-methyl-1,2,4-oxadiazol-3-yl)phenoxy]methyl}-N-(methylsulfonyl)benzamide], the IC50 was 1300 nM.

As to `Cc1c(OCc2cc(F)c(C(=O)NS(C)(=O)=O)cc2F)ccc(F)c1F` [Example 167, 4-[(3,4-difluoro-2-methylphenoxy)methyl]-2,5-difluoro-N-(methylsulfonyl)benzamide], the IC50 is 2600 nM.

For the compound `CS(=O)(=O)NC(=O)c1cc(F)c(COc2cccc(N3CCCCC3)c2)cc1F` [Example 168, 2,5-difluoro-N-(methylsulfonyl)-4-[(3-piperidin-1-ylphenoxy)methyl]benzamide], the IC50 was 3100 nM.

For the compound `COc1ccccc1COc1ccc(C(=O)NS(C)(=O)=O)cc1` [Example 169, 4-[(2-methoxybenzyl)oxy]-N-(methylsulfonyl)benzamide], the IC50 was over 3000 nM.

As for `CS(=O)(=O)NC(=O)c1ccc(OCc2cccc(F)c2F)cc1` [Example 170, 4-[(2,3-difluorobenzyl)oxy]-N-(methylsulfonyl)benzamide], the IC50 is over 3000 nM.

Regarding `CS(=O)(=O)NC(=O)c1ccc(OCc2ccc(F)cc2Cl)cc1` [Example 171, 4-[(2-chloro-4-fluorobenzyl)oxy]-N-(methylsulfonyl)benzamide], the IC50 was 2900 nM.

As for `CS(=O)(=O)NC(=O)c1ccc(OCc2ccc(C#N)cc2)cc1` [Example 172, 4-[(4-cyanobenzyl)oxy]-N-(methylsulfonyl)benzamide], the IC50 was over 3000 nM.

Turning to `CS(=O)(=O)NC(=O)c1ccc(OCc2cc(Cl)cc(Cl)c2)cc1` [Example 173, 4-[(3,5-dichlorobenzyl)oxy]-N-(methylsulfonyl)benzamide], the IC50 is 250 nM.

With `CS(=O)(=O)NC(=O)c1ccc(OCC2CCCCC2)cc1` [Example 174, 4-(cyclohexylmethoxy)-N-(methylsulfonyl)benzamide], the IC50 was 1300 nM.

Consider `CS(=O)(=O)NC(=O)c1ccc(OCc2cc(Cl)ccc2Cl)cc1` [Example 175, 4-[(2,5-dichlorobenzyl)oxy]-N-(methylsulfonyl)benzamide], for which the IC50 was 2100 nM.

With `CS(=O)(=O)NC(=O)c1ccc(OCc2ccc(F)cc2)cc1` [Example 176, 4-[(4-fluorobenzyl)oxy]-N-(methylsulfonyl)benzamide], the IC50 was over 1000 nM.

Regarding `CS(=O)(=O)NC(=O)c1ccc(OCc2ccc(F)c(F)c2)cc1` [Example 177, 4-[(3,4-difluorobenzyl)oxy]-N-(methylsulfonyl)benzamide], the IC50 was 2100 nM.

For `CS(=O)(=O)NC(=O)c1ccc(OCc2ccc(Cl)c(F)c2)cc1` [Example 178, 4-[(4-chloro-3-fluorobenzyl)oxy]-N-(methylsulfonyl)benzamide], the IC50 is 810 nM.

As to `CS(=O)(=O)NC(=O)c1ccc(OCc2cccc(C(F)(F)F)c2)cc1` [Example 179, N-(methylsulfonyl)-4-{[3-(trifluoromethyl)benzyl]oxy}benzamide], the IC50 is over 1000 nM.

Turning to `CS(=O)(=O)NC(=O)c1ccc(OCc2ccccc2F)cc1` [Example 180, 4-[(2-fluorobenzyl)oxy]-N-(methylsulfonyl)benzamide], the IC50 was over 3000 nM.

On to `CS(=O)(=O)NC(=O)c1ccc(OCc2ccc(OC(F)(F)F)cc2)cc1` [Example 181, N-(methylsulfonyl)-4-{[4-(trifluoromethoxy)benzyl]oxy}benzamide], for which the IC50 is 570 nM.

On to `CS(=O)(=O)NC(=O)c1ccc(OCc2c(F)cccc2Cl)cc1` [Example 182, 4-[(2-chloro-6-fluorobenzyl)oxy]-N-(methylsulfonyl)benzamide], for which the IC50 is over 1000 nM.

For `CS(=O)(=O)NC(=O)c1ccc(OCc2ccccc2C(F)(F)F)cc1` [Example 183, N-(methylsulfonyl)-4-{[2-(trifluoromethyl)benzyl]oxy}benzamide], the IC50 is 4300 nM.

On to `CS(=O)(=O)NC(=O)c1ccc(OCc2c(Cl)cccc2Cl)cc1` [Example 184, 4-[(2,6-dichlorobenzyl)oxy]-N-(methylsulfonyl)benzamide], for which the IC50 was 2600 nM.

Consider `COc1cc(COc2ccc(C(=O)NS(C)(=O)=O)cc2)ccc1F` [Example 185, 4-[(4-fluoro-3-methoxybenzyl)oxy]-N-(methylsulfonyl)benzamide], for which the IC50 is over 1000 nM.

Consider `CS(=O)(=O)NC(=O)c1ccc(OCc2ccccc2Cl)cc1` [Example 186, 4-[(2-chlorobenzyl)oxy]-N-(methylsulfonyl)benzamide], for which the IC50 was 7300 nM.

On to `CS(=O)(=O)NC(=O)c1ccc(OCc2cc(F)cc(F)c2)cc1` [Example 187, 4-[(3,5-difluorobenzyl)oxy]-N-(methylsulfonyl)benzamide], for which the IC50 is 4200 nM.

For `COc1ccc(F)c(COc2ccc(C(=O)NS(C)(=O)=O)cc2)c1` [Example 188, 4-[(2-fluoro-5-methoxybenzyl)oxy]-N-(methylsulfonyl)benzamide], the IC50 was 2500 nM.

As for `CS(=O)(=O)NC(=O)c1ccc(OCc2cccc(Cl)c2Cl)cc1` [Example 189, 4-[(2,3-dichlorobenzyl)oxy]-N-(methylsulfonyl)benzamide], the IC50 was 1500 nM.

`CS(=O)(=O)NC(=O)c1ccc(OCc2ccc(Cl)cc2Cl)cc1` [Example 190, 4-[(2,4-dichlorobenzyl)oxy]-N-(methylsulfonyl)benzamide]: the IC50 is 620 nM.

Take `CS(=O)(=O)NC(=O)c1ccc(OCC2CCCC2)cc1` [Example 191, 4-(cyclopentylmethoxy)-N-(methylsulfonyl)benzamide]: the IC50 is 7600 nM.

Regarding `CS(=O)(=O)NC(=O)c1cc(F)c(OCc2cccc(C(F)(F)F)c2)cc1F` [Example 192, 2,5-difluoro-N-(methylsulfonyl)-4-{[3-(trifluoromethyl)benzyl]oxy}benzamide], the IC50 was 3100 nM.

In the case of `CS(=O)(=O)NC(=O)c1cc(F)c(OCc2ccc(C(F)(F)F)cc2)cc1F` [Example 193, 2,5-difluoro-N-(methylsulfonyl)-4-{[4-(trifluoromethyl)benzyl]oxy}benzamide], the IC50 is 4700 nM.

With `CS(=O)(=O)NC(=O)c1cc(F)c(OCc2cccc3ccccc23)cc1F` [Example 194, 2,5-difluoro-N-(methylsulfonyl)-4-(1-naphthylmethoxy)benzamide], the IC50 was 1700 nM.

`CS(=O)(=O)NC(=O)c1cc(F)c(OCc2cccc(F)c2)cc1F` [Example 195, 2,5-difluoro-4-[(3-fluorobenzyl)oxy]-N-(methylsulfonyl)benzamide]: the IC50 was over 3000 nM.

As for `Cc1ccc(COc2cc(F)c(C(=O)NS(C)(=O)=O)cc2F)cc1` [Example 196, 2,5-difluoro-4-[(4-methylbenzyl)oxy]-N-(methylsulfonyl)benzamide], the IC50 is over 1000 nM.

`CS(=O)(=O)NC(=O)c1cc(F)c(OCC2CCC2)cc1F` [Example 197, 4-(cyclobutylmethoxy)-2,5-difluoro-N-(methylsulfonyl)benzamide]: the IC50 is over 1000 nM.
